Measured values: patent US20030060472A1, “Novel substituted nitrocatechols, their use in the treatment of some central and peripheral nervous system disorders and pharmaceutical compositions containing them” (priority 2001, published 2003)

How the values were obtained:
[1] = test system: Brain COMT; assay: Ex vivo COMT activity in mice brain homogenates after administration by gastric tube; conditions: for Brain COMT (% of control) 1 h / Brain COMT (% of control) 6 h: mice brain homogenates, means ± S.E.M. of 4-8; for Brain COMT (% of control) 1 h: 1 h after administration by gastric tube; for Brain COMT (% of control) 6 h: 6 h after administration by gastric tube; for Duration of COMT inhibition and activity in the brain: conclusion from the mice study
[2] = test system: Liver COMT; assay: Ex vivo COMT activity in mice liver homogenates after administration by gastric tube; conditions: for Potency upon liver COMT compared with brain COMT: mice, after oral administration; for Liver COMT (% of control) 1 h / Liver COMT (% of control) 6 h: mice liver homogenates, means ± S.E.M. of 4-8; for Liver COMT (% of control) 1 h: 1 h after administration by gastric tube; for Liver COMT (% of control) 6 h: 6 h after administration by gastric tube
[3] = target: T1, COMT (Homo sapiens, UniProt P21964); assay: COMT activity (O-methylation of adrenaline to metanephrine) in intact SK-N-SH cells; format: cell-based; conditions: test compound 100 nM, means ± SEM, n = 4-8
T1 construct: O-methylationof adrenaline in intact SK-N-SH cells; host or cells: SK-N-SH cells
T1 sequence (P21964 1-271): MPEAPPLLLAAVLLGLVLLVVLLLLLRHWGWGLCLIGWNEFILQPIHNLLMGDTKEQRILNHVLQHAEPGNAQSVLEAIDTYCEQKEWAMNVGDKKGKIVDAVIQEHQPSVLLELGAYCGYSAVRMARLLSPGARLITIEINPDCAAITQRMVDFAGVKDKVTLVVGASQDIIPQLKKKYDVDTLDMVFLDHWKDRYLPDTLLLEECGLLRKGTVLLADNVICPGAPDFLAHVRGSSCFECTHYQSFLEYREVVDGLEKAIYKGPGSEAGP

Row | Compound | Brain COMT (% of control) 1 h [1] | Brain COMT (% of control) 6 h [1] | Potency upon liver COMT compared with brain COMT [2] | Duration of COMT inhibition and activity in the brain [1] | also measured
1 | Cl.O=C(CN1CCCCCC1)c1cc(O)c(O)c([N+](=O)[O-])c1 [Compound 1, 2-Azepan-1-yl-1-(3,4-dihydroxy-5-nitro-phenyl)-ethanone hydrochloride] | 45.0 ± 15.0 % of control | 102.0 ± 19.0 % of control |  |  | 
2 | Cl.O=C(CCN1CCCCC1)c1cc(O)c(O)c([N+](=O)[O-])c1 [Compound 2, 1-(3,4-Dihydroxy-5-nitro-phenyl)-3-piperidin-1-yl-propan-1-one hydrochloride] |  |  | much more potent upon liver COMT than brain COMT | long acting COMT inhibitor with limited activity in the brain | 
3 | Cl.O=C(CC(c1ccccc1)N1CCCCC1)c1cc(O)c(O)c([N+](=O)[O-])c1 (stereo not shown) [Compound 3, 1-(3,4-Dihydroxy-5-nitro-phenyl)-3-phenyl-3-piperidin-1-yl-propan-1-one hydrochloride] |  |  | much more potent upon liver COMT than brain COMT | long acting COMT inhibitor with limited activity in the brain | 
4 | Cl.O=C(CC(c1ccccc1)N1CCOCC1)c1cc(O)c(O)c([N+](=O)[O-])c1 (stereo not shown) [Compound 5, 1-(3,4-Dihydroxy-5-nitro-phenyl)-3-morpholin-4-yl-3-phenyl-propan-1-one hydrochloride] |  |  | equally potent in inhibiting liver and brain COMT activity |  | 
5 | CC1CCCCN1CC(=O)c1cc(O)c(O)c([N+](=O)[O-])c1.Cl (stereo not shown) [Compound 6, 1-(3,4-Dihydroxy-5-nitro-phenyl)-2-(2-methyl-piperidin-1-yl)-ethanone hydrochloride] | 37.0 ± 3.3 % of control | 66.0 ± 2.6 % of control |  |  | 
6 | CCN(CC)C(C)C(=O)c1cc(O)c(O)c([N+](=O)[O-])c1.Cl (stereo not shown) [Compound 7, 2-Diethylamino-1-(3,4-dihydroxy-5-nitro-phenyl)-propan-1-one hydrochloride] | 74.0 ± 12.0 % of control | 126.0 ± 8.0 % of control |  |  | Liver COMT (% of control) 1 h [2]: 38.4 ± 2.8 % of control; Liver COMT (% of control) 6 h [2]: 57.1 ± 4.9 % of control; COMT activity (% of control) [3]: 9.0 ± 0.2 % of control
7 | O=C(COc1ccc2ccccc2c1)c1cc(O)c(O)c([N+](=O)[O-])c1 [Compound 10, 1-(3,4-Dihydroxy-5-nitro-phenyl)-2-(naphthalen-2-yloxy)-ethanone] |  |  | much more potent upon liver COMT than brain COMT | long acting COMT inhibitor with limited activity in the brain | 
8 | CC1CN(CC(=O)c2cc(O)c(O)c([N+](=O)[O-])c2)CC(C)O1.Cl (stereo not shown) [Compound 11, 1-(3,4-Dihydroxy-5-nitro-phenyl)-2-(2,6-dimethyl-morpholin-4-yl)-ethanone hydrochloride] | 80.0 ± 5.0 % of control | 103.0 ± 7.0 % of control |  |  | 
9 | CC1CC(C)CN(CC(=O)c2cc(O)c(O)c([N+](=O)[O-])c2)C1.Cl (stereo not shown) [Compound 12, 1-(3,4-Dihydroxy-5-nitro-phenyl)-2-(3,5-dimethyl-piperidin-1-yl)-ethanone hydrochloride] | 32.0 ± 2.0 % of control | 84.0 ± 6.0 % of control |  |  | 
10 | Cl.N#CC1(c2ccccc2)CCN(CCC(=O)c2cc(O)c(O)c([N+](=O)[O-])c2)CC1 [Compound 15, 1-[3-(3,4-Dihydroxy-5-nitro-phenyl)-3-oxo-propyl]-4-phenyl-piperidine-4-carbonitrile hydrochloride] | 93.0 ± 9.0 % of control | 122.0 ± 9.0 % of control |  |  | Liver COMT (% of control) 1 h [2]: 51.7 ± 5.9 % of control; Liver COMT (% of control) 6 h [2]: 37.9 ± 8.4 % of control; COMT activity (% of control) [3]: 2.9 ± 0.3 % of control
11 | Cl.O=C(CCN1CCCCCCC1)c1cc(O)c(O)c([N+](=O)[O-])c1 [Compound 16, 3-Azocan-1-yl-1-(3,4-dihydroxy-5-nitro-phenyl)-propan-1-one hydrochloride] |  |  | equally potent in inhibiting liver and brain COMT activity |  | 
12 | Cl.Cl.O=C(CCN1CCN(c2cccc(C(F)(F)F)c2)CC1)c1cc(O)c(O)c([N+](=O)[O-])c1 [Compound 18, 1-(3,4-Dihydroxy-5-nitro-phenyl)-3-[4-(3-trifluoromethyl-phenyl)-piperazin-1-yl]-propan-1-one dihydrochloride] |  |  | much more potent upon liver COMT than brain COMT | long acting COMT inhibitor with limited activity in the brain | 
